Literature values in US20130035357A1, “Compositions and Methods for Preventing Joint Destruction in Osteoarthritis” (TRUSTEES OF DARTMOUTH COLLEGE, priority 2010, published 2013).

Experiments:
[1] = system: retinoid acid receptors (RARs; e.g., RARα, RARβ, and RARγ)
[2] = system: RXRα, RXRβ, and RXRγ receptors
[3] = system: IL-1β-stimulated SW-1353 cells
[4] = human chondrocytic cells in vitro
[5] = in vitro, by decreasing the transcription rate of the gene

Compound | activity to bind retinoid acid receptors and to transactivate the related RAR genes [1] | production of mRNA and protein for MMP-13 (MMP-13; [4]) | inhibition of proinflammatory cytokine-induced upregulation of MMP-13 (MMP-13; [5]) | production of mRNA and protein for MMP-1 (MMP-1; [4]) | inhibition of proinflammatory cytokine-induced upregulation of MMP-1 (MMP-1; [5]) | potency as an RXR agonist relative to bexarotene ([2]; compared with bexarotene) | potency as an agonist across RXRα, RXRβ, and RXRγ receptors ([2]; comparison between the three RXR subtypes) | breakdown of collagen by the cells [3, 4] | ability of IL-1β-stimulated SW-1353 cells to degrade collagen matrix ([3]; in vitro)
C=C(c1ccc(C(=O)O)cc1)c1cc2c(cc1C)C(C)(C)CCC2(C)C [Bexarotene, bexarotene] | negligible activity | – | – | – | – | – | – | – | –
Cc1cc2c(cc1C1(c3ccc(C(=O)O)cn3)CC1)C(C)(C)CCC2(C)C [LG268] | – | inhibit | inhibit | inhibit | inhibit | almost an order of magnitude more potent than bexarotene | equal potency | prevented breakdown of collagen | blunt
